Biological target: Bromodomain adjacent to zinc finger domain protein 2A (Homo sapiens) (UniProt Q9UIF9)
Experiment: Inhibition of His6-tagged BAZ2A (unknown origin) (1796 to 1899 residues) assessed as residual activity at 100 uM using H3K(Ac)14 substrate by AlphaScreen assay relative to control

Chain of Bromodomain adjacent to zinc finger domain protein 2A (Homo sapiens) (Q9UIF9 whole entry, the tested form may be a part): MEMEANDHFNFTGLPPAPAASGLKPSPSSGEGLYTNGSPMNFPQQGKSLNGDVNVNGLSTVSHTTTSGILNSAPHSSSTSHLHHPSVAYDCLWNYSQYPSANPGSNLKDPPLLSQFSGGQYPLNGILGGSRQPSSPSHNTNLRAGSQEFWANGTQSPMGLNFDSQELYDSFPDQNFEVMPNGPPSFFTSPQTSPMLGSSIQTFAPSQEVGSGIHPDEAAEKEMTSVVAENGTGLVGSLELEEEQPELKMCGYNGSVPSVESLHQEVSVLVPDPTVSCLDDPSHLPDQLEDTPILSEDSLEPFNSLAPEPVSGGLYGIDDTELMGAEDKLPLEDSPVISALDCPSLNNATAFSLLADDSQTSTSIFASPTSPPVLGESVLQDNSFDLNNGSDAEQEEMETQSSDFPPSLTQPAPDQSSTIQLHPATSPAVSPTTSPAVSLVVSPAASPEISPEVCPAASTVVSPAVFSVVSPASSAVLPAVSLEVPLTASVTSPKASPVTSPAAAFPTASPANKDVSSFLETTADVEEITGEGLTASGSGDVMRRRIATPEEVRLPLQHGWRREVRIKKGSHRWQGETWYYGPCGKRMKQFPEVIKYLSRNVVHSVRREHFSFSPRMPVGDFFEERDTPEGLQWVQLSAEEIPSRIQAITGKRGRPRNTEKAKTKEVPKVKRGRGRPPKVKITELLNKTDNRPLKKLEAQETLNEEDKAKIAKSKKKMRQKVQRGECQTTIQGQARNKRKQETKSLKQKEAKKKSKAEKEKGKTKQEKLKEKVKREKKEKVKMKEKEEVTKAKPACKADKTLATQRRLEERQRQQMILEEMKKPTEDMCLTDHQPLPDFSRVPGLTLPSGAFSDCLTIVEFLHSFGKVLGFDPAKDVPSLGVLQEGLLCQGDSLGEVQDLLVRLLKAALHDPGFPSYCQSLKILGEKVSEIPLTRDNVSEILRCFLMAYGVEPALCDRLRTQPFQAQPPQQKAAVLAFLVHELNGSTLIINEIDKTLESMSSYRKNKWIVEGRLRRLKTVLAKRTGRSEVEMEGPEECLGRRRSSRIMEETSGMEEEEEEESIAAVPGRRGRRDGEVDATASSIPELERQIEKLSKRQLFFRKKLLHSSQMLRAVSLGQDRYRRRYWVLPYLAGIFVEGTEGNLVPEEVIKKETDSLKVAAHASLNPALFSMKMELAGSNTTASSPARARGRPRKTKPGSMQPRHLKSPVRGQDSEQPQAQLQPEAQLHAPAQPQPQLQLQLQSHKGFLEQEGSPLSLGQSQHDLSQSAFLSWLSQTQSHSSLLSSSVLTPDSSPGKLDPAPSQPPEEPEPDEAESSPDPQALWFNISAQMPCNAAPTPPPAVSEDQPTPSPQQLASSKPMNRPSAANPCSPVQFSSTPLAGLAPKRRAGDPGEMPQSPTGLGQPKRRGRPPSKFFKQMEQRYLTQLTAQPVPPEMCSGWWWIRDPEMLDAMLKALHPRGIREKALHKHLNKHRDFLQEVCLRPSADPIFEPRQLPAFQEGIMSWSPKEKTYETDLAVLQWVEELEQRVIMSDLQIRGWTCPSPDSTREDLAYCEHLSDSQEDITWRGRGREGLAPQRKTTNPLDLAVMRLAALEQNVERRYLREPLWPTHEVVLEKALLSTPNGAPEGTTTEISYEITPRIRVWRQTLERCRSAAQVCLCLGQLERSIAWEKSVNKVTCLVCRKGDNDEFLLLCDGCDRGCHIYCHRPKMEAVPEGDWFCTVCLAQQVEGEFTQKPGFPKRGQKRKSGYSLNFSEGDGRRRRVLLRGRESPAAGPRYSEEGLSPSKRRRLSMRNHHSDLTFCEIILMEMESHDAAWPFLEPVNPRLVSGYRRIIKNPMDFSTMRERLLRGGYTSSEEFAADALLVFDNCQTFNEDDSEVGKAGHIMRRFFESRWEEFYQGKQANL

Activity: > 50%
Structure (SMILES): CC(=O)c1c(C)[nH]c(-c2csc(N=C(N)N)n2)c1CCC(C)C
